Several values for one entry are separate records, joined by “and”; a condition that tells them apart may be missing. Equal entries are not always repeated.
Tests used:
[1] = tested on: KLF15 promoter (pEZX-FR03hKLF15p human podocytes); experiment: KLF15 reporter high-throughput screening assay in human podocytes (firefly/renilla luciferase); format: cell-based
Procedure: Briefly, these podocytes proliferate under permissive conditions (gamma interferon at 33° C.), but differentiate under nonpermissive conditions (37° C.).
The amplified fragment contains MluI and PmeI RE sites and was subcloned into the MluI and PmeI cloning site of the pEZX-FR03 Firefly luciferase (FLuc) and Renilla luciferase (Rluc) reporter cloning vector (GeneCopoeia) to generate pEZX-FR03hKLF15p. Following verification of the sequence by restriction and μsequencing, the pEZX-FR03hKLF15p construct (which contains a puromycin resistance cassette) was transfected into human podocytes followed by selection in puromycin-containing media for 2 weeks. Surviving podocytes clones were pooled together for further analysis.
The library of compounds from the National Cancer Institute (Approved Oncology Drugs Set VI; Natural Products Set III; Diversity Set V; and Mechanistic Diversity Set II) were added to a final concentration of 1 μM in 0.5% DMSO in the low FBS cell culture media (0.2% FBS) using liquid handling system PipetMax (Gilson). After 24 hours incubation at 37° C., the Luc-Pair™ Duo-Luciferase HT Assay Kit (GeneCopoeia LF015) were used and firefly and renilla luciferase activity was determined using the SpectraMax M3 (Molecular Devices). Positive controls were all-trans retinoic acid (atRA) (1 μM) and dexamethasone (DEX) (1 μM). Negative controls were DMSO and cell-free media.
(§1) To identify small molecule inducers of KLF15 expression in human podocytes, human podocytes were generated with a dual reporter, firefly luciferase directed at the KLF15 promoter region and renilla luciferase (pEZX-FR03hKLF15p). […] The positive controls were inducers of KLF15 expression, dexamethasone (DEX) and all-trans retinoic acid (atRA), and […] and cell-free wells served as negative controls.

[2] = tested on: NF-κB signaling (p50, p65, IκBα)
Text: Differentiated human podocytes were lysed with a fractionation buffer containing 1× protease and phosphatase inhibitor cocktail (Thermo Fisher Scientific) and separate cytoplasmic and nuclear fractions using a modified procedure described before (72).

FVB/n mice = experiment: Nephrotoxic Serum Nephritis (NTS) model; format: in vivo, mouse
Procedure: In the Nephrotoxic Serum Nephritis (NTS) model, 8-week-old FVB/n mice were initially sensitized with an intraperitoneal injection of 0.5 mg of sheep IgG (IP, Jackson ImmunoResearch) with complete Freund's adjuvant (IP, Millipore Sigma). Five days later, mice were administered 100 μl of NTS (IP, ProbeTex), as previously described (Estrada et al. (2018) JCI Insight 3). […] Urine was collected and mice were euthanized at day 7 or day 14 post-NTS treatment.
Urine albumin was quantified by ELISA using a kit from Bethyl Laboratory Inc. Urine creatinine levels were measured in the same samples using the Creatinine Colorimetric Assay Kit (500701; Cayman Chemical) as per manufacturer's protocol.
Briefly formalin-fixed and paraffin embedded sections were deparaffinized, and endogenous peroxidase was inactivated with H2O2. All kidney sections from these mice were prepared in identical fashion. Immunofluorescence was performed using rabbit anti-KLF15, mouse anti-WT1 (Santa Cruz, SC-7385), rabbit anti-Synaptopodin (Sigma, SAB3500585), rabbit anti-p65 (Cell Signaling Tech, 8242S) antibodies. After washing, sections were incubated with the appropriate fluorophore-linked secondary antibody (Alexa Fluor 647 Donkey anti-mouse, Alexa Fluor 568 Donkey anti-rabbit antibodies, Life Technologies). After counter staining with Hoechst (Thermo Fisher Scientific), slides were mounted in Prolong Gold mounting media (Thermo Fisher Scientific) and photographed under a Nikon Eclipse Ni-E Fully Motorized Microscope System with a DS-Qi2 digital camera.
Quantification of KLF15 staining in the podocytes was determined by quantifying the intensity of KLF15 staining (optical density) in WT1+Hoechst staining using ImageJ 1.53c software (National Institute of Health, http://imagej.nih.gov/ij).
Mice were perfused with PBS, and the kidneys were fixed in 10% phosphate buffered formalin overnight and switched to 70% ethanol before processing for histology. Kidney tissue was embedded in paraffin by Stony Brook Medicine Research Histology Core Laboratory (RHCL)—Department of Pathology and 4-μm-thick sections were stained with periodic acid-Schiff (PAS), hematoxylin & eosin (H&E), and masson's trichrome (Sigma-Aldrich). Quantification of % FSGS was determined by renal pathology in a blinded fashion (Huntsman Cancer Institute-University of Utah Health).

[3] = tested on: differentiated human podocytes; experiment: Oxygen consumption rate and extracellular acidification rate (Seahorse XFe96); format: cell-based
Procedure: Subsequently, basal OCR, maximal respiration, ATP-linked respiration, and spare respiratory capacity were determined in the presence of oligomycin, carbonyl cyanide-p-trifluoromethoxyphenylhydrazone (FCCP), and rotenone/antimycin A. All OCR measurements were normalized for the number of cells per well using CyQuant reagent (Life Technologies).

[4] = tested on: KLF15 promoter (pEZX-FR03hKLF15p human podocytes); experiment: Half maximal effective concentration (EC50) of KLF15 reporter activity; format: cell-based; conditions: KLF15 reporter activity, dose-response; read-out: EC50
Procedure: The EC50 was determined using nonlinear regression and then choosing the equation of Sigmoidal function, 4PL method (X is log(concentration); or the equation of log(agonist) vs. response—variable slope).
as §1

Structure (SMILES): CSc1ccc(NC(=O)Nc2ccc(C)nc2)cc1 [BT503]
- KLF15 activity as compared to DEX-treated podocytes [1]: higher KLF15 activity
- KLF15 activity under nonpermissive versus permissive conditions ([1]; 37 C vs 33 C): only induces KLF15 activity under nonpermissive (37 C) conditions
- nuclear localization of p50 and p65 ([2]; LPS-treated podocytes): mitigated this translocation
- IκBα expression ([2]; vs DMSO in the setting of LPS treatment): significantly increased
- albuminuria (FVB/n mice; day 7 and 14 post-NTS treatment, vs DMSO): significantly less albuminuria
- p65 expression in the glomeruli (FVB/n mice; post-NTS treatment): attenuated
- glomerular injury (% of glomeruli with FSGS, extracapillary proliferation) and proteinaceous casts (FVB/n mice; vs DMSO): significantly reduced
- glomerular synaptopodin expression (FVB/n mice; vs DMSO): restored
- interstitial fibrosis (masson's trichrome and α-SMA staining) (FVB/n mice; vs DMSO): less interstitial fibrosis
- podocyte number (WT1+ podocytes per glomerular cross-sectional area) (FVB/n mice; vs DMSO): restored the podocyte number
- basal respiration, maximal respiration, ATP-linked respiration, and spare respiratory capacity ([3]; 3-10 μM): No significant differences
- oxygen consumption rate (OCR) and extracellular acidification rate (ECAR) ([3]; as compared to DMSO or DEX): no significant differences
- EC50 [4]: ~7.1 nM and < 10 nM

Reference: US20250186411A1, “Methods of Treating Disorders Associated with Overactivation of IKKB” (The United States Government as represented by the …, priority 2023, published 2025)
